`CCCCC(C)C(C)C` (stereo not given) [2,3-dimethylheptane] showed a flash point of 15 °C.
For `OCCc1ccccc1` [2-phenylethanol], the flash point was 102 °C.
With `N#CCCCCC#N` [1,4-dicyanobutane] the flash point was 159 °C.
`CC1CCCCCCC1=O` (stereo not given) [2-methylcyclooctanone] gave a flash point of 71 °C.
Work on `CCC(C)N` (stereo not given) [sec-butylamine] yielded a flash point of -19 °C.
Work on `Cn1cccc1` [1-methylpyrrole] yielded a flash point of 15 °C.
Molecule `C[C@H]1CCCC[C@H]1O` (relative stereo) [cis-2-methylcyclohexanol] has a flash point of 59 °C.
With `CCN1CCCCC1` [1-ethylpiperidine] the flash point was 18 °C.
For `c1ccoc1` [furan], the flash point was -36 °C.
With `CC(=O)OCC(C)C` [isobutylacetate] the flash point was 18 °C.
`C=C(C)CCCC` [2-methyl-1-hexene] gave a flash point of -8 °C.
Molecule `CCc1ccc(Cl)cc1` [1-chloro-4-ethylbenzene] has a flash point of 62 °C.
`CC(=O)OCCC(C)C` [isopentylacetate] gave a flash point of 36 °C.
Work on `CC(C)OC=O` [isopropylformate] yielded a flash point of -14 °C.
For `CC1CCCC1=O` (stereo not given) [2-methylcyclopentanone], the flash point was 26 °C.
Molecule `CCCC(C)CC(=O)O` (stereo not given) [3-methylhexanoicacid] has a flash point of 103 °C.
`CCC/C=C/CCC` [trans-4-octene] showed a flash point of 8 °C.
Work on `CC(C)CC(C)C` [2,4-dimethylpentane] yielded a flash point of -12 °C.
`CC(C)(C)Cl` [2-chloro-2-methylpropane] showed a flash point of -23 °C.
`c1ccc(Oc2ccccc2)cc1` [diphenylether] showed a flash point of 115 °C.
Molecule `O=[N+]([O-])C1CCCC1` [nitrocyclopentane] has a flash point of 67 °C.
`C=CCC1CCCC1` [allylcyclopentane] showed a flash point of 12 °C.
`CC(C)c1ccccc1` [cumene] showed a flash point of 31 °C.
`C=CCOCC` [allylethylether] gave a flash point of -20 °C.
`CCCC(=O)OC(=O)CCC` [butanoicanhydride] gave a flash point of 82 °C.
`CCc1cccc(C)c1C` [1-ethyl-2,3-dimethylbenzene] showed a flash point of 65 °C.
`CCCCCCOC(C)=O` [hexylacetate] showed a flash point of 55 °C.
`CC(C)N(C=O)C(C)C` [N,N-diisopropylformamide] showed a flash point of 75 °C.
`C#CCCCCl` [5-chloro-1-pentyne] showed a flash point of 15 °C.
For `C=CC(C)CC` (stereo not given) [3-methyl-1-pentene], the flash point was -33 °C.
`CCC(C)(C)CC(C)(C)C` [2,2,4,4-tetramethylhexane] gave a flash point of 31 °C.
`O=C1CCC1` [cyclobutanone] gave a flash point of 10 °C.
For `CC(C)CCC(C)C` [2,5-dimethylhexane], the flash point was -2 °C.
With `CCCS` [1-propanethiol] the flash point was -14 °C.
Molecule `CCCC(C)[N+](=O)[O-]` (stereo not given) [2-nitropentane] has a flash point of 46 °C.
With `CCc1cccc(C)c1N` [2-ethyl-6-methylaniline] the flash point was 102 °C.
`CC(=O)OCCc1ccccc1` [2-phenylethylacetate] showed a flash point of 102 °C.
In the case of `CCCCC(C)(CC)CC` [3-ethyl-3-methylheptane], the flash point is reported as 41 °C.
With `CCCCOCC` [butylethylether] the flash point was -5 °C.
With `Cc1cccc(F)c1` [3-fluorotoluene] the flash point was 12 °C.
For `CCCCCCI` [1-iodohexane], the flash point was 61 °C.
`CCCCCCC(C)c1ccccc1` (stereo not given) [(1-methylheptyl)benzene] gave a flash point of 100 °C.
`CCCCC1CCCCC1` [butylcyclohexane] gave a flash point of 48 °C.
Molecule `CCN(CC)c1ccccc1` [N,N-diethylaniline] has a flash point of 88 °C.
`C#CCCCCCCC` [1-nonyne] showed a flash point of 33 °C.
In the case of `CC(=O)OCCCc1ccccc1` [3-phenylpropylacetate], the flash point is reported as 113 °C.
Molecule `CCCCN` [butylamine] has a flash point of -7 °C.
In the case of `C1COCCN1` [morpholine], the flash point is reported as 31 °C.
For `CCCBr` [1-bromopropane], the flash point was -4 °C.
With `C[C@H]1CC[C@H](C)CC1` [trans-1,4-dimethylcyclohexane] the flash point was 6 °C.
`c1ccncc1` [pyridine] gave a flash point of 17 °C.
Molecule `CCCCCC(O)CC` (stereo not given) [3-octanol] has a flash point of 68 °C.
For `CCCCCCS` [1-hexanethiol], the flash point was 30 °C.
`CCCCC(=O)CC` [3-heptanone] showed a flash point of 38 °C.
Molecule `C[C@@H]1CCC[C@H](C)C1` [cis-1,3-dimethylcyclohexane] has a flash point of 6 °C.
In the case of `C=CC(C)O` (stereo not given) [3-buten-2-ol], the flash point is reported as 20 °C.
For `C=CCOC(=O)CC` [allylpropanoate], the flash point was 25 °C.
Molecule `C[C@@H]1CC(=O)[C@@H](C)C1` (relative stereo) [trans-2,4-dimethylcyclopentanone] has a flash point of 42 °C.
Molecule `CCCC(C)C(C)CC` (stereo not given) [3,4-dimethylheptane] has a flash point of 15 °C.
Molecule `CCc1cccc(O)c1` [3-ethylphenol] has a flash point of 94 °C.
Work on `CCC#CCCCCC` [3-nonyne] yielded a flash point of 38 °C.
For `CC(C)CCC(=O)O` [4-methylpentanoicacid], the flash point was 97 °C.
Molecule `C[C@@H]1CCC[C@@H]1C` [cis-1,2-dimethylcyclopentane] has a flash point of -4 °C.
Molecule `CCCCCCCCCOC(C)=O` [nonylacetate] has a flash point of 91 °C.
`CCCC(C)C` [2-methylpentane] showed a flash point of -32 °C.
With `CCCC(C)C(C)(C)C` (stereo not given) [2,2,3-trimethylhexane] the flash point was 15 °C.
Work on `CCCC1CCC(=O)CC1` [4-propylcyclohexanone] yielded a flash point of 86 °C.
In the case of `C=C(C)CCCCC` [2-methyl-1-heptene], the flash point is reported as 10 °C.
`Cc1cc(C)cc(F)c1` [1-fluoro-3,5-dimethylbenzene] gave a flash point of 35 °C.
For `Cc1ccccn1` [2-picoline], the flash point was 26 °C.
In the case of `CCCCCCCC(C)C` [2-methylnonane], the flash point is reported as 38 °C.
In the case of `COCC(C)C` [isobutylmethylether], the flash point is reported as -29 °C.
With `CCCCCCBr` [1-bromohexane] the flash point was 47 °C.
Work on `C=C(Cl)Cl` [1,1-dichloroethene] yielded a flash point of -25 °C.
In the case of `CCCC(CC)CCC` [4-ethylheptane], the flash point is reported as 15 °C.
`CC(C)c1ccccc1N` [2-isopropylaniline] showed a flash point of 95 °C.
For `CCCCCCCC(C)O` (stereo not given) [2-nonanol], the flash point was 82 °C.
`CCCc1ccccc1N` [2-propylaniline] gave a flash point of 97 °C.
Molecule `C=CC#N` [acrylonitrile] has a flash point of -5 °C.
With `CCNC1CCCCC1` [N-ethylcyclohexanamine] the flash point was 45 °C.
In the case of `C=C(C)CCl` [3-chloro-2-methyl-1-propene], the flash point is reported as -12 °C.
Work on `c1ccc2c(c1)CCCC2` [1,2,3,4-tetrahydronaphthalene] yielded a flash point of 71 °C.
Molecule `C#CCC(C)C` [4-methyl-1-pentyne] has a flash point of -24 °C.
For `CCc1ccccc1CC` [o-diethylbenzene], the flash point was 55 °C.
`CCC(C)(C)C(C)C(C)C` (stereo not given) [2,3,4,4-tetramethylhexane] showed a flash point of 31 °C.
Molecule `CCCCC(=O)OC(=O)CCCC` [pentanoicanhydride] has a flash point of 101 °C.
`CCCCCCCS` [1-heptanethiol] showed a flash point of 46 °C.
`CCc1cccc(C(C)C)c1` [1-ethyl-3-isopropylbenzene] gave a flash point of 63 °C.
For `CC(C)C(C)O` (stereo not given) [3-methyl-2-butanol], the flash point was 27 °C.
For `OC1CCCCCC1` [cycloheptanol], the flash point was 71 °C.
With `C=CCCl` [3-chloropropene] the flash point was -28 °C.
`Cc1cccc(N)c1` [3-methylaniline] gave a flash point of 86 °C.
`CC#CCCCCCC` [2-nonyne] gave a flash point of 39 °C.
Work on `C=COC(=O)CCC` [vinylbutanoate] yielded a flash point of 20 °C.
For `CCNC(C)=O` [N-ethylacetamide], the flash point was 106 °C.
`CC(C)C1CCCCC1=O` (stereo not given) [2-isopropylcyclohexanone] showed a flash point of 65 °C.
With `CC=CC#N` [2-butenenitrile] the flash point was 17 °C.
`CCc1ccccc1Br` [1-bromo-2-ethylbenzene] gave a flash point of 79 °C.
Molecule `CC(=O)OC(C)(C)C` [tert-butylacetate] has a flash point of 4 °C.
With `CC(C)C(C)C(C)(C)C` (stereo not given) [2,2,3,4-tetramethylpentane] the flash point was 11 °C.
Molecule `CC(=O)N(C)C` [N,N-dimethylacetamide] has a flash point of 66 °C.
Molecule `N#CCc1ccccc1` [benzylcyanide] has a flash point of 101 °C.
In the case of `OCc1ccccc1` [benzylalcohol], the flash point is reported as 93 °C.
`CCCCC(=O)CCCC` [5-nonanone] gave a flash point of 60 °C.
Molecule `C=CCOCCC` [allylpropylether] has a flash point of -5 °C.
For `CCCCCCCO` [1-heptanol], the flash point was 70 °C.
With `Cc1ccccc1I` [2-iodotoluene] the flash point was 90 °C.
For `CCCCCCCl` [1-chlorohexane], the flash point was 26 °C.
With `CC(C)C(C)(C)C(C)C` [2,3,3,4-tetramethylpentane] the flash point was 11 °C.
Molecule `CC(=O)CC(C)C` [4-methyl-2-pentanone] has a flash point of 14 °C.
Molecule `CC(C)(C)c1ccccc1O` [2-tert-butylphenol] has a flash point of 102 °C.
Work on `C=CC(=O)OCC` [ethylacrylate] yielded a flash point of 8 °C.
`CCNCC` [diethylamine] showed a flash point of -23 °C.
In the case of `Cc1ccncc1` [4-picoline], the flash point is reported as 38 °C.
Work on `C=CC1CCCCC1` [vinylcyclohexane] yielded a flash point of 21 °C.
`CCCCCC#N` [hexanenitrile] showed a flash point of 47 °C.
Work on `C=CC(=O)OC` [methylacrylate] yielded a flash point of -3 °C.
`CCC(C)OC(C)CC` (stereo not given) [di-sec-butylether] gave a flash point of 15 °C.
`CCCCC(C)Br` (stereo not given) [2-bromohexane] gave a flash point of 40 °C.
Work on `CCCCBr` [1-bromobutane] yielded a flash point of 10 °C.
Work on `C=CCCCCC=C` [1,7-octadiene] yielded a flash point of 5 °C.
In the case of `CCCCCCCC(=O)CCC` [4-undecanone], the flash point is reported as 92 °C.
`CC(C)CCOC=O` [isopentylformate] gave a flash point of 22 °C.
Molecule `CCCCC(C)CCCC` [5-methylnonane] has a flash point of 37 °C.
`COC(=O)c1ccccc1C(=O)OC` [dimethylphthalate] showed a flash point of 150 °C.
